The subject of data set [1] is learning and memory functions. The data set is described as follows: Morris water maze (MWM) test. In kind it is in vivo, mouse. As to the method: (§1) To evaluate the learning and memory functions of the mice, we performed the Morris water maze (MWM) and Y-maze tests. After completion of the Os-pep dosage regimen, behavioral studies were performed on AβO-injected, AβO-injected and scramble and functional AdipoR1 shRNA-treated, APP/PS1 and Adipo^−/− mice (n = 13/group) using the MWM and Y-maze tests. […] The mice were randomly selected, and the operators were unaware of the genotype and treatment details for the behavioral study. The MWM and Y-maze tests were performed as previously described.

Data set [2] relates to activated caspase-3 and cleaved PARP-1. Nature of the data set: Apoptotic and neurodegenerative markers in APP/PS1 mouse brain, immunoblot. The format is in vivo. The following applies: APP/PS1 mice, 5 μg/g, i.p., alternating days for 45 days, n = 8/group. As for the experimental part: (§2) The protein concentrations of the homogenates of mouse brain tissue and cell lysates in vitro were measured using a Bio-Rad protein assay kit (Bio-Rad Laboratories, Hercules, CA), and immunoblotting was performed as we previously described, using primary antibodies (detailed information described in the supplementary Table 1). Western blotting membranes have been cut prior to original western blot images and original western blot images are available at supplementary material.

The subject of a further data set is mice. Nature of the data set: Safety of chronic optimized dosage regimen in mice. The following applies: 5 μg/g, i.p. In kind it is in vivo, mouse. As to the method: (§3) Os-pep was dissolved in double-deionized distilled water and then prepared in normal saline to obtain the final administered concentration. The AβO, APP/PS1, Adipo^−/− and WT mice were injected i.p. with Os-pep at a dosage of 5 μg/g on alternating days for 45 days. WT, Veh-injected transgenic-APP/PS1 and Adipo^−/− mice were injected with the same volume of double-deionized water and normal saline. The WT control and sham mice as well as the Veh-injected AβO, APP/PS1, Adipo^−/− and HFD mice received the same volume of double-deionized distilled water or normal saline.
We monitored and weighed the mice three times per week to examine the effect of Os-pep dosage regimen (5 µg/g, i.p., on alternating days for 45 days) on the animals’ body weights. At the completion of the treatment, we calculated the average change in the body weight of the mice. At the completion of the treatments and behavioral experiments, blood samples were collected by cardiac puncture of the right atrium. […]

Another data set deals with LTP. Nature of the data set: Electrophysiology, LTP in hippocampal CA1 slices. The format is in vivo, mouse.
A further data set relates to Synap and PSD95. The data set is described as follows: Synap and PSD95 in APPswe/ind-overexpressing SH-SY5Y cells, immunoblot. The following applies: Os-pep 10 μM. The format is cell-based, human. As to the method: Human neuroblastoma SH-SY5Y cells were seeded (in 6-well culture plates for immunoblotting and in chamber slides for immunofluorescence) in DMEM (Dulbecco’s modified Eagle medium) containing 10% fetal bovine serum (FBS) and 1% antibiotics (penicillin-streptomycin) and incubated at 37 °C in humidified air containing 5% CO2. Once the cells reached 70–80% confluence, the cells were transfected using the pCAX vector containing the APPswe/ind gene using Lipofectamine 3000 (Life Technologies) according to the provider’s protocols. AdipoR1 siRNA (h) (SC-60123) and AMPK siRNA (h) (SC-45312) (Santa Cruz Biotechnology, Inc.) were used at a concentration of 10 μM per transfection and expressed for 72 h according to the manufacturer’s protocol (Santa Cruz Biotechnology, Inc.). A negative siRNA (Ambion, Thermo Fisher Scientific) was used as a control. Seventy-two hours after the transfections, the cells were exposed to Os-pep (10 μM) for 12 h and then subjected to immunoblotting and immunofluorescence analyses.
Human neuroblastoma SH-SY5Y cells were treated with 1 µM of insulin for 48 h to produce intrinsic insulin-resistant human neuroblastoma (SH-SY5YIR) cells. […]

For the next data set, the system named is SH-SY5Y cells. The data set is described as follows: ApoTox-Glo Triplex assay (viability, cytotoxicity, caspase 3/7), AβO-exposed cells. The following applies: AβO 1 μM, 12 h. The format is cell-based, human. As to the method: (§4) The ApoTox-Glo^TM Triplex assay (Promega, Madison, WI) was performed to assess the viability, cytotoxicity and caspase^3/7 activation in the human neuroblastoma SH-SY5Y and mouse hippocampal HT22 cells. SH-SY5Y and HT22 cells (2×10^4/ml) were cultured in 96-well plates (Thermo Fisher Scientific) containing DMEM supplemented with 10% FBS and 1% antibiotics and incubated at 37°C in a humidified incubator containing 5% CO2. After reaching 70% confluency, the cells were treated with AβO (1 µM) and different concentrations of Os-pep (0.5, 1, 5 and 10 µM) for 12 h. The control group (cells treated with 0.01% DMSO) was also analyzed. In addition, SH-SY5Y and HT22 cells were transfected with the AdipoR1 siRNA (h) (SC-60123) and AdipoR1 siRNA (m) (SC-60124), respectively, and treated with AβO (1 µM) and Os-pep (10 µM) for 12 h; the control group was transfected with the negative siRNA (Ambion, Thermo Fisher Scientific) and treated with 0.01% DMSO. The assay was performed according to our previously described protocols.

The subject of the next data set is spatial working memory. The data set is described as follows: Y-maze test. The format is in vivo, mouse. The following applies: AβO-injected, APP/PS1 and Adipo−/− mice, n = 13/group. As to the method: as §1
A further data set deals with HT22 cells. Nature of the data set: ApoTox-Glo Triplex assay (viability, cytotoxicity, caspase 3/7), AβO-exposed cells. In kind it is cell-based, mouse. Conditions: 12 h. As for the experimental part:
as §4

For data set [3], the system named is pre- and postsynaptic protein markers. Nature of the data set: Pre- and postsynaptic protein markers in mouse brain, immunoblot. In kind it is in vivo. The following applies: 5 μg/g, i.p., alternating days for 45 days. As for the experimental part:
as §3, §2

Setting [4] is: AβO-injected, APP/PS1 and Adipo−/− mice, n = 13/group.

The values below come from paper PMC8042910, “Adiponectin-mimetic novel nonapeptide rescues aberrant neuronal metabolic-associated memory deficits in Alzheimer’s disease” (Molecular Neurodegeneration, 2021).

Residues, ends and D or L forms follow the SMILES beside them.

Turning to `C[C@@H](O)[C@H](NC(=O)[C@@H]1CCCN1C(=O)CNC(=O)[C@H](CS)NC(=O)[C@@H]1CCCN1C(=O)CNC(=O)[C@H](CCC(N)=O)NC(=O)[C@@H](NC(=O)[C@@H](N)CS)[C@@H](C)O)C(=O)O` [Os-pep] (H-CTQGPCGPT-OH; N-terminus and C-terminus assumed), the “spatial learning/memory functions with AdipoR1 silencing (MWM and Y-maze)” value in data set [1] (AβO-injected mice exposed to shRNA silencing of AdipoR1 gene, vs scramble shRNA) is recorded as “did not improve spatial learning/memory functions”. Besides, in data set [1] (AβO-injected, APP/PS1 and Adipo−/− mice, 5 μg/g, i.p., alternating days for 45 days, n = 13/group), the “latency to reach the submerged platform, training session” value was “decrease in the latency”. In [1] (setting [4]), the “number of platform crossings, probe test” value is “significantly increased number of platform crossings”. Besides, the “time spent in the target quadrant, probe test” value in data set [1] (setting [4]) is “more time was spent in the target quadrant”. Besides, in data set [2], the “activated caspase-3 and cleaved PARP-1 levels” value was “significantly decreased”. For the same molecule, in the data set with mice (alternating days for 45 days, APP/PS1, HFD and Adipo−/− mice), the “liver or kidney dysfunction (serum biochemical parameters)” value is “did not induce liver or kidney dysfunction”. Besides, the “undesirable effects of chronic Os-pep treatment alone” value in the data set on mice (on alternating days for 45 days, Os-pep alone) is listed as “did not induce any undesirable effects”. Moreover, the LTP result in the data set with LTP (APP/PS1 and Adipo−/− mice, 5 μg/g, i.p., alternating days for 45 days, n = 5–6/group) is “improved LTP”. Besides, the “potentiating effect on LTP with AdipoR1 silencing” value in the data set with LTP (AβO mice with shRNA-mediated silencing of AdipoR1 gene) is recorded as “significantly attenuated”. The “suppression of LTP, scramble shRNA” value with LTP (scramble shRNA-treated AβO mice, 5 μg/g, i.p., alternating days for 45 days) is recorded as “almost completely rescued to a level comparable to that of normal controls”. Moreover, the “Synap and PSD95 expression with AdipoR1 siRNA” value in the data set on Synap and PSD95 (APPswe/ind-overexpressing SH-SY5Y cells exposed to AdipoR1 siRNA) was “did not restore or increase”. Further, the “Synap and PSD95 expression” value with Synap and PSD95 (APPswe/ind-overexpressing SH-SY5Y cells) was “restored and significantly increased”. Moreover, the “AβO-induced toxicity with AdipoR1 siRNA” value in the data set with SH-SY5Y cells (AdipoR1 siRNA-transfected SH-SY5Y, Os-pep 10 μM) was “did not reduce the AβO-induced toxicity”; in the data set on HT22 cells (AdipoR1 siRNA-transfected HT22, AβO 1 μM, Os-pep 10 μM) it was “did not reduce the AβO-induced toxicity”. Besides, the “AβO neurotoxicity (viability, cytotoxicity, caspase 3/7)” value is recorded as “significantly reduced AβO (1 μM) neurotoxicity” in the data set with SH-SY5Y cells (SH-SY5Y, Os-pep 10 μM) and “significantly reduced AβO (1 μM) neurotoxicity” with HT22 cells (HT22, AβO 1 μM, Os-pep 10 μM). For the same molecule, the “neurotoxic effects of AβO” value is recorded as “reduced the neurotoxic effects of AβO” with SH-SY5Y cells (SH-SY5Y, cotreatment 0.5, 1, 5 and 10 μM); “reduced the neurotoxic effects of AβO” in the data set on HT22 cells (HT22, AβO 1 μM, cotreatment 0.5, 1, 5 and 10 μM). Besides, in the data set with spatial working memory, the “percentage of spontaneous alternation behaviors” value is given as “significantly increased”. Besides, in data set [3] (AβO-treated, APP/PS1 and Adipo−/− mice), the “pre- and postsynaptic protein levels” value is recorded as “remarkably increased”. Besides, in data set [3] (WT normal mice), the “effects on pre- and postsynaptic markers, Os-pep alone” value is listed as “did not have any detrimental effects”.
